Series [1] has as its system Influenza A virus. The experiment in a line: Antiviral activity against Influenza A virus (A/Udorn/72) expressing wild-type matrix protein 2 infected in MDCK cells assessed as inhibition of plaque formation at 5 uM measured after 2 days. The series is classed as functional, organism-based. Particulars: Influenza A virus (A/udorn/1972(H3N2)).
Series [2] deals with Influenza A virus. The series can be described thus: Inhibition of Influenza A virus matrix protein 2. The following applies: concentration not given here.
For series [3], the target named is Matrix protein 2 (Influenza A virus) (UniProt P06821). It counts as cell-based. The following applies: Influenza A virus (A/udorn/1972(H3N2)); Oocyte; 100 uM.
In a further series the test system is MDCK. The experiment in a line: Cytotoxicity against MDCK cells after 72 hrs by MTS assay. It counts as cell-based, Canis lupus familiaris. The following applies: dog.
Series [4] in a line: Binding affinity to Influenza A virus (A/Udorn/72) transmembrane domain of matrix protein 2 (22 to 46) at pH 7.4 by circular dichroism analysis. On the set-up: species or system Influenza A virus (A/udorn/1972(H3N2)).
The target in a further series is Matrix protein 2 (Influenza A virus, UniProt P06821). It counts as cell-based, Influenza A virus (A/udorn/1972(H3N2)), Oocyte.

Calls of active or inactive are those of the source. No cut-off for these calls is given here. Some results are limits rather than exact numbers.

Matrix protein 2, sequence (P06821 whole entry): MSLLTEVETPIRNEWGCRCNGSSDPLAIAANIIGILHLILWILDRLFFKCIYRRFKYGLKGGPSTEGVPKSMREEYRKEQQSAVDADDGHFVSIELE
Matrix protein 2 (Influenza A virus), sequence (P06821 whole entry): as above

Regarding `NC12CC3CC(CC(C3)C1)C2` [AMANTADINE], the outcome in the series with Influenza A virus [1] was Active. Also, the inhibition in the series with Influenza A virus [2] was found to be 85%; in series [3], 91%.
`CNCC12C3CCC4C3C3C(CCC31)C42` displayed a CC50 in the series with MDCK of 224 µM. The compound further registered an inhibition in series [3] of 14.7%.
As to `C1CC2C3C4C5CCC4C24CNCC54C13`, the inhibition in series [3] worked out at 39.7%.
As to `NC12C3CCC4C3C3C(CCC31)C42`, the CC50 with MDCK is over 500 µM. In series [3], this compound displayed an inhibition of 4.8%.
In the series on MDCK, `C1C2C1C1C3C4C5C6CC6C4C14CNCC54C23` (stereo unspecified) gave a CC50 of 61 µM. Also, in the series on Influenza A virus [1], the result was Active. In series [3], this compound displayed an inhibition of 86.5%. In addition, in series [4], the affinity, expressed as Kd, was 232 µM.
In turn, `CNC12CC3CC(CC(C3)O1)C2` yielded a CC50 with MDCK of over 500 µM. This compound also gave an inhibition in series [3] of 91.7%. This compound also yielded an IC50 against Matrix protein 2 of 22.9 µM.
Consider `N=C(N)NCC12CC3CC(CC1C3)C2`, for which, in the series on Influenza A virus [1], the outcome was Active. In addition, the inhibition in series [3] turned out to be 97.2%.
For `C1=CC2C3C4C5C=CC4C24CNCC54C13`, the half-maximal cytotoxic concentration (CC50) with MDCK was over 500 µM. Binding in series [4] was characterised by a dissociation constant (Kd) of 74.9 µM. Also, the IC50 on Matrix protein 2 is 33.5 µM.
Take `CCN(CC)C12C3CCC4C3C3C(CCC31)C42`: the CC50 in the series on MDCK amounted to 119 µM. Besides, the inhibition in series [3] was determined as 0%.
`CNCC12CC3CC(CC1C3)C2` gave a CC50 in the series with MDCK of under 19.4 µM. In the series on Influenza A virus [1], the result was Active. The compound further returned an inhibition in series [3] of 92.2%. Further, 17.1 µM corresponded to half-maximal inhibition on Matrix protein 2 (IC50).
Taken in the same sequence, the figures for `CC12CC3CC1(C)CC3(CN)C2` were 79 µM, “Active”, 97.3% and 7.2 µM.
The compound `CC12CC3CC1(C)CC3(N)C2` showed a CC50 in the series on MDCK of over 500 µM. The outcome in the series with Influenza A virus [1] was Active. Moreover, the inhibition in series [3] stood at 93.6%.
On to `NC(N)=NCC12CC3CC(CC1C3)C2`, for which, in the series with MDCK, the CC50 is 10.5 µM. The same compound returned an IC50 against Matrix protein 2 of 2.4 µM.
Take `NC12CC3CC(CC(C3)O1)C2`: the CC50 with MDCK was over 500 µM. The compound also had an inhibition in series [3] of 88.2%. The compound also had a Kd in series [4] of 91.6 µM. The compound also showed a half-inhibitory concentration (IC50) against Matrix protein 2 of 29.2 µM.
For the compound `CC(N)C12CC3CC(CC1C3)C2` (racemic), in the series with MDCK, the CC50 worked out at 256 µM. In addition, the result with Influenza A virus [1] was Active. In addition, the inhibition in series [3] was found to be 93.2%. This compound showed an IC50 at Matrix protein 2 of 12.7 µM.
As for `NCC12CC3CC(CC1C3)C2`, the CC50 in the series on MDCK was found to be 357 µM. Besides, in the series on Influenza A virus [1], the result was Active. For the same compound, in series [3], the inhibition came to 97.1%. Further, the IC50 against Matrix protein 2 was determined as 7.1 µM.
On to `CC(=N)NC12C3CCC4C3C3C(CCC31)C42`, for which the CC50 with MDCK is over 500 µM. The compound further showed an inhibition in series [3] of 9.3%.
Taken in the same sequence, the figures for `NCC12C3CCC4C3C3C(CCC31)C42` were 12 µM and 12.8%.

The values are drawn from ChEMBL document CHEMBL1773003.
